Holding throughout (format): cell-based
The test system of one series is BT-20 cells. Briefly: Acridine orange assay. The note with it: 20 μM, 12 h, vs vehicle. The protocol:
The cell-permeant, nucleic acid binding dye, acridine orange (AO) was used to assess the effect of TPH104 on the activation of lysosomes. A 10 μg/ml stock solution was prepared using PBS. The TNBC cells were seeded in a 6-well plate as described in the cell cycle assay. After overnight incubation, cells were incubated with TPH104 (1, 2, 5 μM), vehicle or 20 uM of chloroquine (CQ, […]) for 12 h. The media was removed via suction and 1 ml of AO, diluted in 1:1000 in PBS, was added to each well and the plate was incubated for an additional 30 minutes. Cells were washed three times in PBS to remove excess dye. The cells from each well were captured from randomly selected fields using a fluorescent microscope (EVOS-FLC cell imaging system, Thermofisher scientific) at 40× to determine the AO fluorescence intensity which is positively correlated to lysosomal activation.

Series [1] deals with normal human mammary epithelial cells (HMEC). Briefly: MTT cell viability assay, HMEC. The settings on record: Homo sapiens, HMEC; MTT, 72 h; Normal; read-out: IC50 ± SD, HMEC. The protocol:
(§1) The following cancer and non-cancer cell lines were used in the initial cytotoxicity screening of the TPH104 compounds: triple negative breast cancer (TNBC): MDA-MB468, MDA-MB 231, and BT-20; non-TNBC: MCF-7 and ZR-75-1; ovarian: Ov2008; prostate: DU145; colon: HCT-116, S1, and LOVO; lung: H460; normal kidney: HEK-293; normal breast: HMEC; and normal colon: CRL-1459. All cells were cultured in Dulbecco's modified Eagle medium (DMEM), supplemented with 10% fetal bovine serum (FBS), and 1% penicillin/streptomycin (P/S). Cells were allowed to grow as adherent monolayers in T25 flasks in a humidified incubator with 5% CO2 at 37° C. for a period of 24 h, unless otherwise specified for certain experiments.
(§2) The MTT assay was used to determine the cytotoxicity of all of the compounds. Briefly, in a 96-well flat-bottom cell culture plate, the cells were seeded at a density between 3-5×10^3 cells/well (180 μl in each well) and incubated for 24 h (a hemocytometer was used for cell counting). The next day, the cells were incubated with different concentrations of the nine compounds (0, 0.1, 0.3, 1, 3, 10, 30, and 100 μM) for 72 h. After 72 h, 20 μl of 5 mg/ml of 3-(4,5-dimethylthiazol-2-yl)-2,5-diphenyltetrazolium bromide (MTT) was added to the plate and incubated with the cells for 3 h at 37° C. In this experiment, the living cells will reduce the soluble MTT dye to non-soluble purple formazan crystals. Following incubation, the media containing MTT removed via suction and 100 μL of 100% dimethyl sulfoxide (DMSO) was added to dissolve the formazan crystals. Subsequently, the plate was shaken for 2 minutes and the absorbance was measured at a wavelength of 570 nm using a SpectraMax iD3 Multi-Mode Microplate Reader (Molecular Devices, Sunnyvale, CA). The IC50 values of each compound were calculated and used to determine the selectivity ratio (IC50 in normal cells/IC50 in cancer cells) of each compound as previously described. Based on the results obtained from these experiments, the compound TPH104, which had the lowest IC50 value, was selected for further experiments.
(Formazan colour is commonly taken as a measure of viable cells.)

Series [2] deals with MDA-MB231 (TNBC cell line). Briefly: MTT cell viability assay, MDA-MB231. The settings on record: Homo sapiens, MDA-MB-231, 72 h, read-out: IC50 ± SD, MDA-MB231. The protocol:
as §1, §2

A further series has as its system TNBC cell lines. Briefly: Cytotoxicity screening (MTT), TNBC cell lines overall. The note with it: classification of Table 1 cytotoxicity data.
Source text: To this end, several commercial databases were searched, and 17 similar molecules from the VitasM database were retrieved with considerable structural diversity in terms of the substitution on the aryl ring A attached to the thienopyrimidine scaffold and aryl ring B attached to hydrazino moiety. Further, the biological evaluation of the 17 molecules sheds light on the structural features deemed important for the selective cytotoxicity shown by this class of molecules. With this understanding, the 17 molecules were subjected to a screening protocol comprising of two TNBC, two non-TNBC, and one normal cell lines.
as §1, §2

The target of series [3] is T1, BCRP (ABCG2), MCF-7 M100 breast cancer cells (Homo sapiens, UniProt Q9UNQ0).
T1 construct: endogenous in cells; host or cells: MCF-7 M100 breast cancer cells
Briefly: Hoechst 33342 assay for BCRP modulation. The note with it: concentration dependent. As for the experimental part: Ability of BCRP to efflux nuclear stain Hoechst 33342 was used to identify the molecules which interfere with BCRP transporter activity. About 14000 cells of MCF-7 M100 breast cancer cells were seeded in each well in 96 well plates and allowed to grow until confluency for 4-5 days. Then media was replaced with phenol red free RPMI media and cells were treated with indicated concentrations of TPH104s and 5 μg/mL of Hoechst 33342. Fluorescence measured after 60 minutes with excitation at 361/20 nm and at emission 497/20 nm using the BioTek Cytation 5 imaging multi-mode reader (Bio-Tek, Winooski, VT). DMSO (0.5% v/v) was used as the vehicle, and 0.5 μM of BCRP inhibitor, Ko143 was used as a positive control and 15 μM of P-gp modulator, verapamil was used as negative control.

Series [4] has as its system ZR-75-1 (non-TNBC cell line). Briefly: MTT cell viability assay, ZR-75-1. The note with it: Homo sapiens, ZR-75-1, 72 h, read-out: IC50 ± SD, ZR-75-1. The protocol: as §1, §2
The target in series [5] is T2, P-gp (ABCB1), DU145TXR prostate cancer cells (Homo sapiens, UniProt P08183).
T2 construct: endogenous in cells; host or cells: DU145TXR prostate cancer cells
Briefly: Calcein AM assay for P-gp modulation. The settings on record: concentration dependent. As for the experimental part:
Ability of P-gp to efflux Calcein AM is used to identify the molecules which interfere with P-gp transporter activity. About 10000 cells of DU145TXR prostate cancer cells were seeded in each well in 96 well plates and allowed to grow until confluency for 4-5 days. Then media was replaced with phenol red free RPMI media and cells were treated with indicated concentrations of TPH104s and 1 μg/mL of Calcein AM. Fluorescence measured after 60 minutes with excitation at 485/20 nm and at emission 535/20 nm using the BioTek Cytation 5 imaging multi-mode reader (Bio-Tek, Winooski, VT). DMSO (0.5% v/v) was used as the vehicle, and 15 μM of Pgp inhibitor SMU 45 was used as a positive control. (n=6 in each trial).

In series [6] the test system is MCF-7 (non-TNBC cell line). Briefly: MTT cell viability assay, MCF-7. The note with it: Homo sapiens, MCF7, 72 h, read-out: IC50 ± SD, MCF-7. As for the experimental part: as §1, §2
The test system of series [7] is MDA-MB468 (TNBC cell line). Briefly: MTT cell viability assay, MDA-MB468. The settings on record: Homo sapiens, MDA-MB-468, 72 h, read-out: IC50 ± SD, MDA-MB468. As for the experimental part: as §1, §2
Another series concerns BT-20 or MDA-MB468 cells. Briefly: Cellular reactive oxygen species (ROS) detection assay (H2DCFDA). The settings on record: 2 μM. The protocol:
To assess the effect of TPH104 on the generation of ROS, a cell permeant, fluorogenic dye, 2′,7′-dichlorofluorescin diacetate, H2DCFDA, was used. A 5 mM stock solution was prepared using DMSO and PBS was used to prepare the 3 μM working solution of H2DCFDA. The TNBC cells were seeded in a 6-well plate as described in the cell cycle assay. After overnight incubation, cells were incubated with different TPH104 (1, 2, 5 μM) or vehicle for 12 h or with 2 μM of paclitaxel (positive control) for 2 h. The H2DCFDA dye (3 μM) was added to each well and the plate was incubated for an additional 30 minutes. Subsequently, cells were washed 3 times in PBS to remove excess H2DCFDA dye. Thereafter, cells from each well were captured from randomly selected fields using a fluorescent microscope (EVOS-FLC cell imaging system, Thermofisher scientific) at 40× to determine the 2′,7′-dichlorofluorescein (DCF) fluorescence intensity, which is positively correlated with the generation of ROS.

T2 sequence (P08183 whole entry): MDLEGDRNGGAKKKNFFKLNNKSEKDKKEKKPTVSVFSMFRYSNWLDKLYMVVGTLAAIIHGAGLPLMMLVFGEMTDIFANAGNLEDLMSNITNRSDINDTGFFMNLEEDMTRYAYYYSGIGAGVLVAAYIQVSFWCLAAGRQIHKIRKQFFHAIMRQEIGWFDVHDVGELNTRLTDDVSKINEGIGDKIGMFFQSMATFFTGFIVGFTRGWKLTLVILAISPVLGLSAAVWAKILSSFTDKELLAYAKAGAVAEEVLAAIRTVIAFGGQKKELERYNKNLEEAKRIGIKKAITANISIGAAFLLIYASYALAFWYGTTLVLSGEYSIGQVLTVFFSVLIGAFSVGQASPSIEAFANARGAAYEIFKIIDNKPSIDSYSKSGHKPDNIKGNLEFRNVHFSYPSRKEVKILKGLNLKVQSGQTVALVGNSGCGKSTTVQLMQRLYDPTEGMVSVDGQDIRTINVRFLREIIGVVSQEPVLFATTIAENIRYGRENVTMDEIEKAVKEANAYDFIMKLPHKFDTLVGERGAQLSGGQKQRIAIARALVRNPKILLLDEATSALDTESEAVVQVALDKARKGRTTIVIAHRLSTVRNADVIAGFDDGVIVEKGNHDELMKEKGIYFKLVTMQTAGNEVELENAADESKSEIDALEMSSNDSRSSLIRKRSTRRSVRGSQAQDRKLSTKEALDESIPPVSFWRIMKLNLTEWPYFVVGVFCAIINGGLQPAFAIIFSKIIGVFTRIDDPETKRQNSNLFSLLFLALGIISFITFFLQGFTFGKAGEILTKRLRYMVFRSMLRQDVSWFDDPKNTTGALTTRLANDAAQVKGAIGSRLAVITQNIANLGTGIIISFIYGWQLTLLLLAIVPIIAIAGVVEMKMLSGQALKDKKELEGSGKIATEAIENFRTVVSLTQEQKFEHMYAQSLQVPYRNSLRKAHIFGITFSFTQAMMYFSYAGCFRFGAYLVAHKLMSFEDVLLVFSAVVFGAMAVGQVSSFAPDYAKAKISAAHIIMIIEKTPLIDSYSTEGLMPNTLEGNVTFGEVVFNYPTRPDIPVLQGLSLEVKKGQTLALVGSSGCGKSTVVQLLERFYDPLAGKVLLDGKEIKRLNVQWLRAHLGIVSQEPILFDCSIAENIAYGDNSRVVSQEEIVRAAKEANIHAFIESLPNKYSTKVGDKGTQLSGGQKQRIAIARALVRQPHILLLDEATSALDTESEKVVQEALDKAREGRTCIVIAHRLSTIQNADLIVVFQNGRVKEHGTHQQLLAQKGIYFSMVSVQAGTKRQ
T1 sequence (Q9UNQ0 whole entry): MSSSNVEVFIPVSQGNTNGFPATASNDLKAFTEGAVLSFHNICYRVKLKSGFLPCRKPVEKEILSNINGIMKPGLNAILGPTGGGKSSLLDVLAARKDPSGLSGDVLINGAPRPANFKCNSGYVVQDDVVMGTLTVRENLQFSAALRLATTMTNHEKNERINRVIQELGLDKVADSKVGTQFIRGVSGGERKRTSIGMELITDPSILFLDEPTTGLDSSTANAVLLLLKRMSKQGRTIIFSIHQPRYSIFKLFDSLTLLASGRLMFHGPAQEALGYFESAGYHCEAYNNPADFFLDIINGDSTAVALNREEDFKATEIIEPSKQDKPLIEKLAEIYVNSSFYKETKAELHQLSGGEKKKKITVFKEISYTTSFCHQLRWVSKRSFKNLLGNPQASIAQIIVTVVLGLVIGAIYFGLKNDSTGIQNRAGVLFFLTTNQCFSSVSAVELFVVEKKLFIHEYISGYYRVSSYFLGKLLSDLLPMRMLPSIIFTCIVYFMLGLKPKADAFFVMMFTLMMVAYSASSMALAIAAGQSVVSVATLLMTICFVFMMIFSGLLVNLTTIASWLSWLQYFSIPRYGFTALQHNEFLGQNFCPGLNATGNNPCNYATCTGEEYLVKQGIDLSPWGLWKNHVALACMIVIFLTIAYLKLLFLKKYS

In the case of `CCN(CC)CCCC(C)Nc1ccnc2cc(Cl)ccc12` (stereo not shown) [chloroquine, reference compound], in the series on BT-20 cells, the “AO fluorescence intensity, negative control” value is recorded as “no significant change”.
With `Cc1ccc(-c2csc3ncnc(N/N=C/c4ccc(Br)cc4O)c23)cc1` [TPH104m], the IC50 – broadly, the concentration that gives 50% inhibition – in series [1] was > 100 µM; in [2] it was 0.44 ± 0.21 µM; in series [4] it was > 100 µM; in series [6], 2.73 ± 1.02 µM; in series [7], 0.29 ± 0.01 µM. Further, the “potency compared to TPH104” value with TNBC cell lines is recorded as “comparable potency to that of TPH104”. The “efflux function of ABCG2” value in series [3] was “blocking the efflux function”. Further, the “efflux function of ABCB1” value in series [5] is given as “blocking the efflux function”.
As to `CC(=O)O[C@H]1C(=O)[C@@]2(C)[C@H]([C@H](OC(=O)c3ccccc3)[C@]3(O)C[C@H](OC(=O)[C@H](O)[C@@H](NC(=O)c4ccccc4)c4ccccc4)C(C)=C1C3(C)C)[C@]1(OC(C)=O)CO[C@@H]1C[C@@H]2O` [paclitaxel, reference compound], the “DCF fluorescence (ROS), positive control” value in the series with BT-20 or MDA-MB468 cells is “significantly increased”.

The values above are taken from US12390467B2, “Necroptosis inducers or autophagy inhibitors or a combination thereof” (The University of Toledo, priority 2018, dated 2025).
